According to ChEMBL document CHEMBL3400085, “New cytochalasins from medicinal macrofungus Crodyceps taii and their inhibitory activities against human cancer cells” (Bioorg Med Chem Lett, 2015):

Columns and labels:
A549 = test: Cytotoxicity against human A549 cells assessed as inhibition of proliferation by SRB method; format: functional, cell-based
[1] = Cytotoxicity against human 95-D cells assessed as inhibition of proliferation by SRB method; format: functional, cell-based
MRC5 = test: Cytotoxicity against human MRC5 cells assessed as inhibition of proliferation by SRB method; format: cell-based
[2] = Cytotoxicity against human HL-7702 cells assessed as inhibition of proliferation by SRB method; format: functional, cell-based; settings: L02

Row | SMILES | IC50 (A549) [µM] | IC50 [1] [µM] | IC50 (MRC5) [µM] | IC50 [2] [µM]
1 | CC1=C(C)[C@H]2[C@H](Cc3ccccc3)NC(=O)[C@]23[C@H](O)/C=C/[C@@](C)(O)C(=O)[C@@H](C)C/C=C/[C@H]3[C@@H]1O [DEACETYLCYTOCHALASIN C] | 13.6 | 3.67 | > 200 | 31.1
2 | CC1=C(C)[C@H]2[C@H](Cc3ccccc3)NC(=O)[C@]23[C@H](O)/C=C/[C@H](C)C(=O)[C@@H](C)C/C=C/[C@H]3[C@@H]1O | 17.1 | 26 | > 200 | 35.7
3 | C=C1[C@@H](C)[C@H]2[C@H](Cc3ccccc3)NC(=O)[C@]23[C@H](O)/C=C/[C@@](C)(O)C(=O)[C@@H](C)C/C=C/[C@H]3[C@@H]1O [ZYGOSPORIN D] | 16.7 | 4.04 | > 200 | 30.2
4 | CC1=C[C@@H]2/C=C/C[C@H](C)C(=O)[C@](C)(O)/C=C/[C@@H](O)[C@]23C(=O)N[C@@H](Cc2ccccc2)[C@@H]3[C@H]1C | 19.9 | 20.7 | > 200 | 30.9
5 | CC1=C(C)[C@H]2[C@H](Cc3ccccc3)NC(=O)[C@]23[C@H](O)/C=C/[C@H](C)C(=O)[C@@H](C)C/C=C/[C@H]3C1=O | 32.3 | 23.7 | > 200 | 29.8
